{"source": "patent US20020103117A1", "about": "“Use of protein kinase-inhibitor-alpha” (priority 2000, published 2002)", "key": {"[1]": {"system": "functioning rat heart", "experiment": "Action of PKI-alpha on an isolated, perfused functioning rat heart", "parameters": "species or system Sprague Dawley rats", "procedure": "Hearts from a total of six Sprague Dawley rats with a weight of about 300 g were isolated and perfused as described in Schulze et al. (Schulze et al.; Circulation 1990: 959-69). The hemodynamic parameters including contractility, external heart work (EHW), coronary and aortic flow were recorded about 15 minutes after antegrade perfusion. Cell-permeable, recombinant PKI-alpha (amino acids 14 to 22, Calbiochem #476485) was then administered. The compound was infused directly into the atrium canula using a motor pump. The infusion rate was continuously adapted to the emission volume (the sum of the aortic and coronary flow) and increased in five-minute intervals to reach the final PKI-alpha concentrations in the perfusate of 0.5, 1.0 and 2.0 μmol/l."}, "[2]": {"system": "protein kinase-A", "experiment": "Activity of protein kinase-A in cell cultures of myocytes", "type": "cell-based", "details": "cell cultures of myocytes (e.g., C9H2 cells)", "procedure": "The protein-kinase-inhibitor alpha shortened to amino acids 14 to 22 was added to the cell cultures of myocytes (e.g., C9H2 cells, available from the American Type Culture Collection), and the activity of protein kinase-A was determined.\nThe 9-amino-acid-long PKI-alpha inhibitor (the gene product of the second open reader frame of the PKI gene in humans and in pigs) was added to the cell cultures of myocytes, and the expression of the PKI-alpha and the activity of protein kinase-A were determined."}, "[3]": {"details": "PKI-alpha in perfusate 0.5, 1.0 and 2.0 μmol/l"}}, "data": [{"substance": "shortened PKI-alpha: Cell-permeable, recombinant PKI-alpha comprising only amino acids 14 to 22 of the complete sequence, Calbiochem #476485", "values": [{"measurement": "decrease of the left ventricular function, expressed as dp/dt-max", "setting": "[1]; [3]", "result": 53, "unit": "%"}, {"measurement": "reduction of the external heart work", "setting": "[1]; [3]", "result": 43, "unit": "%"}, {"measurement": "depression of the myocardial function", "setting": "[1]; infusion up to 2 μmol", "result": "pronounced, reversible, concentration-dependent (up to 2 μmol) depression of the myocardial function"}, {"measurement": "activity of protein kinase-A", "setting": "[2]", "result": "dose-dependent reduction of activity"}]}]}
